The target in one test is T1, Carbonic anhydrase (Stylophora pistillata, UniProt C0IX24).
T1 sequence (C0IX24 whole entry): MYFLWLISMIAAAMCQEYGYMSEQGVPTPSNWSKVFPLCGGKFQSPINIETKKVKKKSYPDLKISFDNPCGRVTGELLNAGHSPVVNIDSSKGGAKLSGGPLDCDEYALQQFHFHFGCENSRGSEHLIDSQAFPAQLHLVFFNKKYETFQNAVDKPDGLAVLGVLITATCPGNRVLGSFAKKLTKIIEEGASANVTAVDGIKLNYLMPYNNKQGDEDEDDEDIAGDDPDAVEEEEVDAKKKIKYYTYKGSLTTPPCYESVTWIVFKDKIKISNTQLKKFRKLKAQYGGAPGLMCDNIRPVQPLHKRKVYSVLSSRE

Another test deals with Carbonic anhydrase 6 (Homo sapiens, UniProt P23280).
A further test addresses T2, Alpha carbonic anhydrase (Stylophora pistillata, UniProt B5SU02).
T2 sequence (B5SU02 whole entry): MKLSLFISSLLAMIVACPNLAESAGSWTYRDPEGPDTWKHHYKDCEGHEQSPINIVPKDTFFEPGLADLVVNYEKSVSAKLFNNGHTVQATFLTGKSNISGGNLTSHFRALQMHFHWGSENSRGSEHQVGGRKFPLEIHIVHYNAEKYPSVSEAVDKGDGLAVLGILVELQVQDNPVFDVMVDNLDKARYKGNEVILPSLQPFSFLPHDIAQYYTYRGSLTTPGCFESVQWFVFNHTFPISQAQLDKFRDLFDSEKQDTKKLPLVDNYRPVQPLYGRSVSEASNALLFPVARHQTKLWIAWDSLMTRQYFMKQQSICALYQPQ

Another test concerns the target Carbonic anhydrase 1 (Homo sapiens, UniProt P00915).

SMILES strings stand for the structures. pKi: −log10 of the molar value.

Our source for the Ki values is ChEMBL document CHEMBL1641500, “Carbonic anhydrase inhibitors. Inhibition studies with anions and sulfonamides of a new cytosolic enzyme from the scleractinian coral Stylophora pistillata” (Bioorg Med Chem Lett, 2011).

In general, pKi refers to the negative decadic logarithm of the Ki, by convention in mol/L. Lower therefore signals a high Ki.

Carbonic anhydrase 6, sequence (P23280 whole entry): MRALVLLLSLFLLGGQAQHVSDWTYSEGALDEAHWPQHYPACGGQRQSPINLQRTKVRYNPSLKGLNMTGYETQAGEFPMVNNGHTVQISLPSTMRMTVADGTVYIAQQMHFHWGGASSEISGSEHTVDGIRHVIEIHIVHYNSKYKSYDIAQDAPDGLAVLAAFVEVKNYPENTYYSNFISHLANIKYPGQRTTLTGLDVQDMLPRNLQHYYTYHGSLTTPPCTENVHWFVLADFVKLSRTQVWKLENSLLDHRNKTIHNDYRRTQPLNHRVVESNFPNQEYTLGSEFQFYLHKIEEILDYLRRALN
Carbonic anhydrase 1, sequence (P00915 whole entry): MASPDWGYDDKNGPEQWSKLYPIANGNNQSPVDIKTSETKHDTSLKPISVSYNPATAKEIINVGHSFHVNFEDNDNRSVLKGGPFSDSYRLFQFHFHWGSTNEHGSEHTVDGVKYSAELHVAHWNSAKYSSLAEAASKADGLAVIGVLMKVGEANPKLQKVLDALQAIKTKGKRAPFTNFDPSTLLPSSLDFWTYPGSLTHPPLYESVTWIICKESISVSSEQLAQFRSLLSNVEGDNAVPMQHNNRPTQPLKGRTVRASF

As to `NNc1ccccc1S(N)(=O)=O`, the pKi at Carbonic anhydrase is 6.19.

`Nc1ccc(S(N)(=O)=O)cc1I` had a pKi on Carbonic anhydrase of 6.16.

On Carbonic anhydrase, `Nc1ccc(S(N)(=O)=O)cc1Br` had a negative-log Ki (pKi) of 6.27.

The compound `NCCc1ccc(S(N)(=O)=O)cc1` showed a negative logarithm of the Ki (pKi) on Carbonic anhydrase of 6.24.

For `Nc1ccc(S(=O)(=O)NCCc2ccc(S(N)(=O)=O)cc2)cc1`, the negative-log Ki (pKi) at Carbonic anhydrase was 6.04.

Compound `NS(=O)(=O)c1ccc(S(=O)(=O)Nc2cccc3c(Cl)c[nH]c23)cc1` had a pKi at Carbonic anhydrase of 6.40.

In the case of `NS(=O)(=O)c1nnc(NS(=O)(=O)c2ccccc2)s1` [BENZOLAMIDE], the pKi on Carbonic anhydrase was 6.67.

On Carbonic anhydrase, `CCN[C@H]1CN(CCCOC)S(=O)(=O)c2sc(S(N)(=O)=O)cc21` [BRINZOLAMIDE] showed a negative logarithm of the Ki (pKi) of 6.77.

For the compound `Br` [BROMIDE], the pKi on Carbonic anhydrase is 3.02; at Carbonic anhydrase 6, 3.14; on Alpha carbonic anhydrase, 5.01.

In turn, `Cc1ccc(-c2cc(C(F)(F)F)nn2-c2ccc(S(N)(=O)=O)cc2)cc1` [CELECOXIB] showed a negative logarithm of the Ki (pKi) on Carbonic anhydrase of 6.16.

As to `N#CO` [CYANATE], the pKi was 3.16 at Carbonic anhydrase, 3.16 at Carbonic anhydrase 6 and 3.23 on Alpha carbonic anhydrase.

As to `F` [FLUORIDE ION], the negative logarithm of the Ki (pKi) on Carbonic anhydrase is 3.04; at Carbonic anhydrase 6 it was 3.22; on Alpha carbonic anhydrase, 3.21.

As for `Cl` [HYDROCHLORIC ACID], the pKi at Carbonic anhydrase was 3.28; on Carbonic anhydrase 6 it was 3.14; on Alpha carbonic anhydrase, 3.30.

Turning to `I` [IODIDE], the figures for the pKi on Carbonic anhydrase, at Carbonic anhydrase 6 and on Alpha carbonic anhydrase were 1.48, 3.09 and 5.05, respectively.

On Carbonic anhydrase, `NCc1ccc(S(N)(=O)=O)cc1` [MAFENIDE] had a pKi of 6.29.

As to `O=[N+]([O-])O` [NITRIC ACID], the results for the negative-log Ki (pKi) at Carbonic anhydrase, at Carbonic anhydrase 6 and on Alpha carbonic anhydrase were 3.00, 3.12 and 3.25, respectively.

For `O=NO` [NITROUS ACID], the negative-log Ki (pKi) on Carbonic anhydrase was 2.50; at Carbonic anhydrase 6, 3.09; on Alpha carbonic anhydrase it was 3.11.

The compound `Cc1ccc(S(N)(=O)=O)cc1` [P-TOLUENESULFONAMIDE] had a negative-log Ki (pKi) on Carbonic anhydrase of 6.29.

As for `OB(O)c1ccccc1` [PHENYLBORONIC ACID], the negative logarithm of the Ki (pKi) on Carbonic anhydrase is 11.09; at Carbonic anhydrase 6 it was 9.09; at Alpha carbonic anhydrase, 9.17; on Carbonic anhydrase 1, 7.23.

In the case of `O=C1NS(=O)(=O)c2ccccc21` [SACCHARIN], the pKi at Carbonic anhydrase was 6.98; on Carbonic anhydrase 6 it was 6.03.

For the compound `NS(=O)(=O)O` [SULFAMATE], the negative logarithm of the Ki (pKi) on Carbonic anhydrase was 11.07; at Alpha carbonic anhydrase, 9.09; on Carbonic anhydrase 1, 10.68.

`NS(N)(=O)=O` [SULFAMIDE] had a pKi at Carbonic anhydrase of 11.24.

With `O=S(O)O` [SULFUROUS ACID], the figures for the pKi at Carbonic anhydrase, on Carbonic anhydrase 6 and at Alpha carbonic anhydrase were 3.37, 1.85 and 3.39, respectively.

Take `S1SSSSSSS1` [SULFUR]: the pKi at Carbonic anhydrase is 2.40; on Carbonic anhydrase 6, 3.15; on Alpha carbonic anhydrase, 3.24; on Carbonic anhydrase 1, 6.22.
